# Data published in patent publication US7892826B2, “Human cell clones having an endogeneous urotensin II receptor” (Janssen Pharmaceutica N.V., priority 2005, dated 2011).
# Bridge positions count the residues as written; N and C are the ends. Square brackets hold non-standard residues; d marks the D form. Peptide text beside a SMILES is read from it. Pen = CC(C)(S)[C@H](N)C(=O)O; Orn = NCCC[C@H](N)C(=O)O
# Tests used:
# [1] = target: T1, endogeneous urotensin II receptor (UT receptor) in 6D9 cells (Homo sapiens, UniProt Q9UKP6); experiment: Calcium mobilization assay (FLIPR, Calcium 3 dye) in 6D9 cells; format: cell-based; conditions: 10 nM or 30 nM U-II (FIG. 6)
# T1 construct: endogenous in cells; host or cells: 6D9 (ATCC PTA-7749), sub-clone of human rhabdomyosarcoma line SJRH30 (ATCC CRL-2061)
# T1 sequence (Q9UKP6 1-389): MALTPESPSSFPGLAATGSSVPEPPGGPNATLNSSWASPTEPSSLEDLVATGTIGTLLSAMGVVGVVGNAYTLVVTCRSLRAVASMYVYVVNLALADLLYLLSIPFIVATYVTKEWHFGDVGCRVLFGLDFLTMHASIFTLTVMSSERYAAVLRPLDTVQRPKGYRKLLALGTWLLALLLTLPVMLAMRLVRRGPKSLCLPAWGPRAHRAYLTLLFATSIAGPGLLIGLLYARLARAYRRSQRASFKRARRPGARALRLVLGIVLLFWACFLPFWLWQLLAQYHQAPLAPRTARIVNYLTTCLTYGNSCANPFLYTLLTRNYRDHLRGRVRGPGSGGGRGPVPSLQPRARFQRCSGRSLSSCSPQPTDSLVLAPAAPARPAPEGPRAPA
# Description: Calcium mobilization was performed using FLIPR and Calcium 3, a non-wash Ca^2+ dye. Unlike the conventional Ca^2+ dye such as Fluo-3, Fluo-4, and Fura-2/AM, etc., the non-wash Ca^2+ dye was formulated to incorporate extracellular fluorescence quenchers and avoid the need to wash away extracellular Ca^2+ dye after loading the cells with the dye (Monteith and Bird, 2005, supra).
# Cells were plated into 96 or 384 well plates and were incubated at 37° C. After the incubation, the growth medium was removed and replaced with HBSS (Hanks Balanced salt solution #21-023-CV, Mediatech, Inc, Herndon, Va.) containing Calcium 3 dye with probenecid.
# In addition, the cells survived in cultures for over 3 months (17 passages) and were still responsive to U-II (FIG. 4).
# [2] = target: T1, endogeneous urotensin II receptor (UT receptor) in 6D9 cells; experiment: 384-well FLIPR high throughput calcium mobilization assay in 6D9 cells; format: cell-based; conditions: 384-format
# Description: Calcium mobilization was performed using FLIPR and Calcium 3, a non-wash Ca^2+ dye. Unlike the conventional Ca^2+ dye such as Fluo-3, Fluo-4, and Fura-2/AM, etc., the non-wash Ca^2+ dye was formulated to incorporate extracellular fluorescence quenchers and avoid the need to wash away extracellular Ca^2+ dye after loading the cells with the dye (Monteith and Bird, 2005, supra). Cells were plated into 96 or 384 well plates and were incubated at 37° C. After the incubation, the growth medium was removed and replaced with HBSS (Hanks Balanced salt solution #21-023-CV, Mediatech, Inc, Herndon, Va.) containing Calcium 3 dye with probenecid. […] This Example teaches a high throughput approach using FLIPR on a 384-well format. […] Various factors of the FLIPR assay had been tested to minimize the measure variability.
Compound,Block of calcium mobilization coupled to U-II stimulation [1],Dose dependence of response in HTS calcium mobilization assay [2]
CC(C)[C@H](NC(=O)[C@@H]1CSSC(C)(C)[C@H](NC(=O)[C@@H](N)CC(=O)O)C(=O)N[C@@H](Cc2ccccc2)C(=O)N[C@H](Cc2c[nH]c3ccccc23)C(=O)N[C@@H](CCCN)C(=O)N[C@@H](Cc2ccc(O)cc2)C(=O)N1)C(=O)O [Urantide] (H-D[Pen]F[dW][Orn]YCV-OH; disulfide 2-7),blocked the calcium mobilization coupled to U-II stimulation,dose dependent responses
"CC(C)[C@H](NC(=O)[C@@H]1CSSC[C@H](NC(=O)[C@H](CC(=O)O)NC(=O)[C@@H]2CCCN2C(=O)[C@@H](NC(=O)[C@@H](N)CCC(=O)O)[C@@H](C)O)C(=O)N[C@@H](Cc2ccccc2)C(=O)N[C@@H](Cc2c[nH]c3ccccc23)C(=O)N[C@@H](CCCCN)C(=O)N[C@@H](Cc2ccc(O)cc2)C(=O)N1)C(=O)O [hU-II, SEQ ID NO: 2, ETPDCFWKYCV]",,dose dependent responses
